According to patent US20180127464A1, “NOVEL EPHA4 INHIBITORS TARGETING ITS LIGAND BINDING DOMAIN” (Sanford-Burnham Medical Research Institute, priority 2015, published 2018):
Where a SMILES comes first, the peptide text is derived from it. [ ]: non-standard residue; d: D form. Trp(5-OH) = N[C@@H](Cc1c[nH]c2ccc(O)cc12)C(=O)O; Phe(4-Cl) = N[C@@H](Cc1ccc(Cl)cc1)C(=O)O; 4Pal = N[C@@H](Cc1ccncc1)C(=O)O; Ava = NCCCCC(=O)O

Legend:
EphA4 LBD [1] = molecular target: T1, EphA4 LBD (Homo sapiens, UniProt P54764); test: Fluorescence polarization assay (FPA), displacement of FITC-labeled KYL peptide; format: binding; details: PBS pH 7.2
Experimental: Fluorescence Polarization Assay (FPA):
The EphA4 binding KYL peptide ([…], Murai et al. Mol. Cell. Neurosci. 2003, 24:1000-1011) was labeled at the N-terminus with fluorescein isothiocyanate (FITC) and purified by HPLC. For competitive binding assays, 1 μL of 200 μM EphA4 LBD was pre-incubated with the tested compounds at various concentrations in 98 μL PBS (pH=7.2) in 96-well black plates at room temperature for 10 min, and then 1 μL of 500 μM FITC labeled EphA4 peptide was added to produce a final volume of 100 μL. The KYL and DMSO were incubated in each assay as positive and negative controls, respectively. After 30 min of incubation at room temperature, the polarization values in millipolarization units were measured at excitation/emission wavelengths of 480/535 nm with a multilabel plate reader (PerkinElmer, Waltham, Mass., USA). Ki value was determined by fitting the experimental data to a Sigmoidal dose-response (variable slope) nonlinear regression model (GraphPad Prism version 5.01 for Windows, GraphPad Software, San Diego, Calif., USA).
(§1) (B) EphA4-LBD was dissolved in 50 mM potassium phosphate buffer (pH 6.5), containing 100 mM NaCl. ITC were measured.
Target sequence in this assay (P54764 30-209 limits assumed): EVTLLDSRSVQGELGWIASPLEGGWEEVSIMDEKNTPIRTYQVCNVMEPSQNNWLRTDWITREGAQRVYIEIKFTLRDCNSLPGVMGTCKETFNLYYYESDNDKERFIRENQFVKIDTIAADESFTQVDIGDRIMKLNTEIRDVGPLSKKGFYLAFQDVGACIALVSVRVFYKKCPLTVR

EphA4 LBD [2] = molecular target: T1, EphA4 LBD; test: Isothermal titration calorimetry (ITC); format: binding; details: 25° C., PBS with 10% DMSO
Experimental: Isothermal Titration Calorimetry (ITC):
(§2) isothermal titration calorimetry (ITC) to measure binding constant was performed on a Model ITC200 calorimeter from Microcal/GE Life Sciences. When indicated, measurements were performed in a reverse way—i.e., the protein was titrated into the compound solution. A total of 8 μl EphA4 solution (1.65 mM) was injected into the cell containing 165 µM of compound per injection. All titrations were performed at 25° C. in PBS buffer supplemented with 10% DMSO. Experimental data were analyzed using Microcal Origin software provided by the ITC manufacturer (Microcal).
as §1

SOD1(G93A)-mutant mice [3] = test: Pilot study for toxicity and dose in SOD1(G93A)-mutant mice; format: in vivo; details: 2 mice
SOD1(G93A)-mutant mice [4] = test: In vivo efficacy in an animal model of ALS
Experimental: Equal number of SOD1(G93A)-mutant mice of the same gender from same litter were randomly divided into two groups (n=12).
FIG. 3. […] The data were analyzed using the Kaplan-Meier method. Animal studies. Equal number of SOD1(G93A)-mutant mice of the same gender from same litter were randomly divided into two groups. […] Animals were assessed daily for the time of onset of hind limb tremor and loss of splay reflex. The endpoint was designated as the point when the mouse could no longer roll over within 10 s after being pushed onto its side. At this stage, mice were killed. Disease onset and survival time were compared using the Kaplan-Meier method. […] Values are given as mean±SD. Preliminary BBB penetration and PK studies were performed by Agilux (Cambridge, Mass.) and in house.

15N-labeled EphA4-LBD = 15N-labeled EphA4-LBD (Homo sapiens, UniProt P54764); test: 2D-[15N,1H]-HSQC NMR detection of binding; details: 300 K
Chain of 15N-labeled EphA4-LBD (P54764 30-209 limits assumed): as above
Text: NMR spectra of ^15N-labeled EphA4-LBD were acquired on 700 MHz Bruker Avance spectrometer equipped with TCI cryoprobe. All NMR data were processed and analyzed using TOPSPIN2.1 (Bruker Biospin Corp., Billerica, Mass., USA) and SPARKY3.1 (University of California, San Francisco, Calif., USA).

EphA2 receptor = EphA2 receptor (Homo sapiens, UniProt P29317); test: ITC with EphA2 receptor; format: binding; details: same experimental conditions as EphA4 ITC
Chain of EphA2 receptor (P29317 24-976): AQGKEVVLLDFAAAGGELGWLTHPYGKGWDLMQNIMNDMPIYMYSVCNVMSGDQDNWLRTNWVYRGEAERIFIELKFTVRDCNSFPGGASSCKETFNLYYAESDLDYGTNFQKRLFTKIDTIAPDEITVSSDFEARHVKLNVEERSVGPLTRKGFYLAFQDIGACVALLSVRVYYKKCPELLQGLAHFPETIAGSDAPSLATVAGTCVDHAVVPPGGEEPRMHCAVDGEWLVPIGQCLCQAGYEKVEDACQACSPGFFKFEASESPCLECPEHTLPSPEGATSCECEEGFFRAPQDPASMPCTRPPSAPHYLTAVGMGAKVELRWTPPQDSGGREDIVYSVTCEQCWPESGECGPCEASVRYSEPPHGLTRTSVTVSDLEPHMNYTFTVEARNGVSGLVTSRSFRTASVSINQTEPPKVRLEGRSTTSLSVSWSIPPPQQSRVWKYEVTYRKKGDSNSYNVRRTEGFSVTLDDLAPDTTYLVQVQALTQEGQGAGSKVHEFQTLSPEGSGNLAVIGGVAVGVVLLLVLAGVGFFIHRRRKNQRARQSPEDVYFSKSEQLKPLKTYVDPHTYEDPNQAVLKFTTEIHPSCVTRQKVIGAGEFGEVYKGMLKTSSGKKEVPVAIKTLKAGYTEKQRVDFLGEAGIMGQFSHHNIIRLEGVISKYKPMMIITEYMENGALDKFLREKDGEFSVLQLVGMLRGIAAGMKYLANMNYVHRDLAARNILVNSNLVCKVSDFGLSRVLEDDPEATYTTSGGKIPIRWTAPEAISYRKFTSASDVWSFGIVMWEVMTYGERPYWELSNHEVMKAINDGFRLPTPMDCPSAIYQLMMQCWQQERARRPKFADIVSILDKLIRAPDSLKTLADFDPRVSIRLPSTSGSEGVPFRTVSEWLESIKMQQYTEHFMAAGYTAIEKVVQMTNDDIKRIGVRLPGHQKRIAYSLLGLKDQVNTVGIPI
Experimental: as §2

[5] = molecular target: EphA4 ligand binding domain (UniProt P54764); test: ITC; grade legend: A < 1 µM
Chain of EphA4 ligand binding domain (P54764 29-209 limits assumed): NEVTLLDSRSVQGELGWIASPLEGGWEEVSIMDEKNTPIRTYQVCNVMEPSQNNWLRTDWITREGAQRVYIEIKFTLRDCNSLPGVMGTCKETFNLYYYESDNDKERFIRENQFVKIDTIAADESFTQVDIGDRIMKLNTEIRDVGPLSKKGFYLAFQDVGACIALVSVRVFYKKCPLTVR

[6] = molecular target: EphA4 ligand binding domain (UniProt P54764); test: FPA, displacement of FITC-KYL peptide from EphA4 LBD; repeated experiments
[7] = molecular target: EphA4 ligand binding domain (UniProt P54764); test: ITC
EphA4-LBD mutant 159A = EphA4-LBD mutant 159A (UniProt P54764); test: ITC
Chain of EphA4-LBD mutant 159A (P54764 other isoform, or with tags, fused parts or gaps mutant limits assumed): as the sequence (P54764 29-209 limits assumed) above, with I31A counted along it

EphA4-LBD mutant 159G = EphA4-LBD mutant 159G (UniProt P54764); test: ITC
Chain of EphA4-LBD mutant 159G (P54764 other isoform, or with tags, fused parts or gaps mutant limits assumed): as the sequence (P54764 29-209 limits assumed) above, with I31G counted along it

[8] = molecular target: EphA4 ligand binding domain (UniProt P54764); test: FPA, displacement of FITC-KYL peptide from EphA4 LBD; grade legend: 5 µM ≤ C
EphA4 = EphA4 (Homo sapiens, UniProt P54764); details: previously reported; cited from earlier work
Chain of EphA4 (P54764 20-986, species assumed): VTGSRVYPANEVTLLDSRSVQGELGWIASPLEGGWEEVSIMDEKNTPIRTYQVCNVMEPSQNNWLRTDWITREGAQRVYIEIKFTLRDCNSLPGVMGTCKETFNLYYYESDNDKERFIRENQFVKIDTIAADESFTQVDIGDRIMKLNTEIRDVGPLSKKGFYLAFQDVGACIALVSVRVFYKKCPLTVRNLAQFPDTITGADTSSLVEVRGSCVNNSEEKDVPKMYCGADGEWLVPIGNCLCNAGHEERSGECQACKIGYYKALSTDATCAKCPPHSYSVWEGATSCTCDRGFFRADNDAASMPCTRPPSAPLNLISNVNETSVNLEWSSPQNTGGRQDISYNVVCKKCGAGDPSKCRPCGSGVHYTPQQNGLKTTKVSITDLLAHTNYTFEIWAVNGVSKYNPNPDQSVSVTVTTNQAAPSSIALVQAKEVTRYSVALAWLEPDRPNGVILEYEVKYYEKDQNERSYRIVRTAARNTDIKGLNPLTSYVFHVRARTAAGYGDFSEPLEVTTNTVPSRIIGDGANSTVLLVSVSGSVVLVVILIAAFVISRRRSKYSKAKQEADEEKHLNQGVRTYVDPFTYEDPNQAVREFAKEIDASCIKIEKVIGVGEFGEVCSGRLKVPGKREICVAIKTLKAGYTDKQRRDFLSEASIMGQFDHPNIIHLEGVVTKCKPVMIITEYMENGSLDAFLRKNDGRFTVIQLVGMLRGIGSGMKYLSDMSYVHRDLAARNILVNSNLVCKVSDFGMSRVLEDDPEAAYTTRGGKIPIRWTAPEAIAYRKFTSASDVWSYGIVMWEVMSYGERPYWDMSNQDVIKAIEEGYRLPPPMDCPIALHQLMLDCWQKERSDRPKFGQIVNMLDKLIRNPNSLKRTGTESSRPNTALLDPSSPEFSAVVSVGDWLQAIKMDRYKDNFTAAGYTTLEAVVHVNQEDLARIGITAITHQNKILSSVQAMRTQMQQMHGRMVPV

Compound: NCCCCC(=O)N[C@@H](Cc1c[nH]c2ccc(O)cc12)C(=O)N[C@@H](Cc1ccc(Cl)cc1)C(=O)N[C@@H](Cc1ccncc1)C(=O)N[C@H](Cc1c[nH]c2ccccc12)C(N)=O [Compound 4, 5-amino-N-((S)-1-((S)-1-((S)-1-((R)-1-amino-3-(1H-indol-3-yl)-1-oxopropan-2-ylamino)-1-oxo-3-(pyridin-4-yl)propan-2-ylamino)-3-(4-chlorophenyl)-1-oxopropan-2-ylamino)-3-(5-hydroxy-1H-indol-3-yl)-1-oxopropan-2-yl)pentanamide] (H-[Ava][Trp(5-OH)][Phe(4-Cl)][4Pal][dW]-NH2)
- Ki (EphA4 LBD [1]): 1 to 5 µM

Compound: NCCCC(=O)N[C@@H](Cc1c[nH]c2ccc(O)cc12)C(=O)N[C@@H](Cc1ccc(Cl)cc1)C(=O)N[C@@H](Cc1ccncc1)C(=O)NCCc1c[nH]c2ccccc12 [Compound 5, N-((S)-1-((S)-1-((S)-1-(2-(1H-indol-3-yl)ethylamino)-1-oxo-3-(pyridin-4-yl)propan-2-ylamino)-3-(4-chlorophenyl)-1-oxopropan-2-ylamino)-3-(5-hydroxy-1H-indol-3-yl)-1-oxopropan-2-yl)-4-aminobutanamide]
- Ki (EphA4 LBD [1]): 1 to 5 µM
- Kd (EphA4 LBD [2]): 1 to 5 µM

Compound: NCCCC(=O)N[C@@H](Cc1c[nH]c2ccc(O)cc12)C(=O)N[C@@H](Cc1ccc(Cl)cc1)C(=O)N[C@@H](Cc1ccncc1)C(=O)NCCc1c[nH]c2ccc(F)cc12 [Compound 6, 4-amino-N-((S)-1-((S)-3-(4-chlorophenyl)-1-((S)-1-(2-(5-fluoro-1H-indol-3-yl)ethylamino)-1-oxo-3-(pyridin-4-yl)propan-2-ylamino)-1-oxopropan-2-ylamino)-3-(5-hydroxy-1H-indol-3-yl)-1-oxopropan-2-yl)butanamide]
- Ki (EphA4 LBD [1]): 1 to 5 µM

Compound: COc1ccc2[nH]cc(CCNC(=O)[C@H](Cc3ccncc3)NC(=O)[C@H](Cc3ccc(Cl)cc3)NC(=O)[C@H](Cc3c[nH]c4ccc(O)cc34)NC(=O)CCCN)c2c1 [Compound 7, 4-amino-N-((S)-1-((S)-3-(4-chlorophenyl)-1-((S)-1-(2-(5-methoxy-1H-indol-3-yl)ethylamino)-1-oxo-3-(pyridin-4-yl)propan-2-ylamino)-1-oxopropan-2-ylamino)-3-(5-hydroxy-1H-indol-3-yl)-1-oxopropan-2-yl)butanamide]
- Signs of toxicity compared to control mice (SOD1(G93A)-mutant mice [3]; 30 mg/Kg daily i.p. for several weeks): no adverse sign of toxicity were observed
- Survival in pilot study (SOD1(G93A)-mutant mice [3]; 30 mg/Kg daily i.p.): increased survival
- Effect on disease onset (SOD1(G93A)-mutant mice [4]; 30 mg/Kg i.p. daily in saline): without affecting the disease onset
- Kaplan-Meier survival compared to control mice (SOD1(G93A)-mutant mice [4]; 30 mg/kg daily i.p.): increased survival
- Average survival time from disease onset to end point (SOD1(G93A)-mutant mice [4]; 30 mg/kg daily i.p. from postnatal day 60, mean±SD, control 28.2±4.2 days, p<0.01): 38.6 ± 5.7 days
- Average life span (SOD1(G93A)-mutant mice [4]; 30 mg/kg daily i.p. from postnatal day 60, n=12, mean±SD, control 134.3±7.2 days, p<0.01): 142.8 ± 6.9 days
- Binding exchange regime by NMR (15N-labeled EphA4-LBD): slow exchange in the NMR time scale
- Binding to the EphA2 receptor by ITC (EphA2 receptor): not observed

Compound: NCCCC(=O)N[C@@H](Cc1c[nH]c2ccc(O)cc12)C(=O)N[C@@H](Cc1ccc(Cl)cc1)C(=O)N[C@@H](Cc1ccncc1)C(=O)NCCc1c[nH]c2ccc(O)cc12 [Compound 8, 4-amino-N-((S)-1-((S)-3-(4-chlorophenyl)-1-((S)-1-(2-(5-hydroxy-1H-indol-3-yl)ethylamino)-1-oxo-3-(pyridin-4-yl)propan-2-ylamino)-1-oxopropan-2-ylamino)-3-(5-hydroxy-1H-indol-3-yl)-1-oxopropan-2-yl)butanamide]
- Ki (EphA4 LBD [1]): 1 to 5 µM
- Kd (EphA4 LBD [2]): 1 to 5 µM

Compound: NCCCC(=O)N[C@@H](Cc1c[nH]c2ccc(O)cc12)C(=O)N[C@@H](Cc1ccc(Cl)cc1)C(=O)N[C@@H](Cc1ccncc1)C(=O)NCCc1c[nH]c2ccc(Cl)cc12 [Compound 9, 4-amino-N-((S)-1-((S)-1-((S)-1-(2-(5-chloro-1H-indol-3-yl)ethylamino)-1-oxo-3-(pyridin-4-yl)propan-2-ylamino)-3-(4-chlorophenyl)-1-oxopropan-2-ylamino)-3-(5-hydroxy-1H-indol-3-yl)-1-oxopropan-2-yl)butanamide]
- Ki (EphA4 LBD [1]): 1 to 5 µM

Compound: COc1ccc2c(CCNC(=O)[C@H](Cc3ccncc3)NC(=O)[C@H](Cc3ccc(Cl)cc3)NC(=O)[C@H](Cc3c[nH]c4ccc(O)cc34)NC(=O)CCCN)c[nH]c2c1 [Compound 10, 4-amino-N-((S)-1-((S)-3-(4-chlorophenyl)-1-((S)-1-(2-(6-methoxy-1H-indol-3-yl)ethylamino)-1-oxo-3-(pyridin-4-yl)propan-2-ylamino)-1-oxopropan-2-ylamino)-3-(5-hydroxy-1H-indol-3-yl)-1-oxopropan-2-yl)butanamide]
- Ki (EphA4 LBD [1]): 1 to 5 µM
- Kd (EphA4 LBD [2]): < 1 µM

Compound: NCCCC(=O)N[C@@H](Cc1c[nH]c2ccc(O)cc12)C(=O)N[C@@H](Cc1ccc(Cl)cc1)C(=O)N[C@@H](Cc1ccncc1)C(=O)NCCc1cccc2ccccc12 [Compound 11, 4-amino-N-((S)-1-((S)-3-(4-chlorophenyl)-1-((S)-1-(2-(naphthalen-1-yl)ethylamino)-1-oxo-3-(pyridin-4-yl)propan-2-ylamino)-1-oxopropan-2-ylamino)-3-(5-hydroxy-1H-indol-3-yl)-1-oxopropan-2-yl)butanamide]
- Ki (EphA4 LBD [1]): ≥ 5 µM

Compound: Compound 7: 4-amino-N-((S)-1-((S)-3-(4-chlorophenyl)-1-((S)-1-(2-(5-methoxy-1H-indol-3-yl)ethylamino)-1-oxo-3-(pyridin-4-yl)propan-2-ylamino)-1-oxopropan-2-ylamino)-3-(5-hydroxy-1H-indol-3-yl)-1-oxopropan-2-yl)butanamide (peptide)
- Kd [5]: < 1 µM
- Ki [6]: 0.5 to 0.66 µM
- Kd [7]: 0.45 µM
- Kd (EphA4-LBD mutant 159A): 9.09 µM
- Kd (EphA4-LBD mutant 159G): 3.66 µM

Compound: Compound 11: 4-amino-N-((S)-1-((S)-3-(4-chlorophenyl)-1-((S)-1-(2-(naphthalen-1-yl)ethylamino)-1-oxo-3-(pyridin-4-yl)propan-2-ylamino)-1-oxopropan-2-ylamino)-3-(5-hydroxy-1H-indol-3-yl)-1-oxopropan-2-yl)butanamide (peptide)
- Ki [8]: > 5 µM

Compound: KYLPYWPVLSSL
- Kd for EphA4 (reported peptides) (EphA4): low micromolar range
